Consider two molecules from patent publication US8791303B2, “Herbicides” (Syngenta Limited, priority 2009, dated 2014).

Structures are written as SMILES.

Series [1] has as its system Alopecurus myosuroides (ALOMY). Description: Example A glasshouse herbicide test, post-emergence, ALOMY. The format is in vivo. Conditions: Alopecurus myosuroides, post-emergence, 312 h, Rate 250 g/ha, sprayed after 8 days cultivation, evaluated after 13 days, read-out: Post-Emergence Activity ALOMY (100=total damage to plant; 0=no damage to plant). The gist of the method:
(§1)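 Plants in pots of standard soil receive a spray of compound in acetone/water (50:50) plus 0.5% Tween 20, either one day (pre-emergence) or 8 days (post-emergence) after sowing. Phytotoxicity is assessed 13 days later, 0–100.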

In series [2] the test system is Echinochloa crus-galli (ECHCG). Description: Example A glasshouse herbicide test, pre-emergence, ECHCG. It counts as in vivo. Conditions: Echinochloa crus-galli, pre-emergence, 312 h, Rate 250 g/ha, sprayed after cultivation for one day, evaluated after 13 days, read-out: Pre-Emergence Activity ECHCG (100=total damage to plant; 0=no damage to plant). The gist of the method: as §1

Series [3] concerns Avena fatua (AVEFA). Description: Example A glasshouse herbicide test, pre-emergence, AVEFA. It counts as in vivo. The note with it: Avena fatua, pre-emergence, 312 h, Rate 250 g/ha, sprayed after cultivation for one day, evaluated after 13 days, read-out: Pre-Emergence Activity AVEFA (100=total damage to plant; 0=no damage to plant). A digest of the protocol:
as §1

The subject of series [4] is Lolium perenne (LOLPE). Description: Example A glasshouse herbicide test, post-emergence, LOLPE. It counts as in vivo. Conditions: Lolium perenne, post-emergence, 312 h, Rate 250 g/ha, sprayed after 8 days cultivation, evaluated after 13 days, read-out: Post-Emergence Activity LOLPE (100=total damage to plant; 0=no damage to plant). The gist of the method:
as §1

In series [5] the test system is Winter Wheat variety 'Hereward'. Briefly: Example B crop damage test, post-emergence, unsafened wheat. The note with it: Rate 250 g/ha; post-emergence spray after 8 days cultivation; no safener; evaluated after 13 days. It counts as in vivo. A digest of the protocol: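 Winter wheat 'Hereward' was sprayed post-emergence 8 days after sowing, using formulated active ingredient in acetone/water (50:50) with 0.5% Tween 20. Plants grew in a glasshouse at 24/16 °C day/night, 14 h light and 65% humidity. Damage was scored 13 days later (0 = none, 100 = total).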

Series [6] concerns Echinochloa crus-galli (ECHCG). Description: Example A glasshouse herbicide test, post-emergence, ECHCG. The format is in vivo. The note with it: Echinochloa crus-galli, post-emergence, 312 h, Rate 250 g/ha, sprayed after 8 days cultivation, evaluated after 13 days, read-out: Post-Emergence Activity ECHCG (100=total damage to plant; 0=no damage to plant). The gist of the method: as §1

Series [7] concerns Avena fatua (AVEFA). Briefly: Example A glasshouse herbicide test, post-emergence, AVEFA. The format is in vivo. The note with it: Avena fatua, post-emergence, 312 h, Rate 250 g/ha, sprayed after 8 days cultivation, evaluated after 13 days, read-out: Post-Emergence Activity AVEFA (100=total damage to plant; 0=no damage to plant). A digest of the protocol: as §1
Series [8] has as its system Lolium perenne (LOLPE). Briefly: Example A glasshouse herbicide test, pre-emergence, LOLPE. It counts as in vivo. The note with it: Lolium perenne, pre-emergence, 312 h, Rate 250 g/ha, sprayed after cultivation for one day, evaluated after 13 days, read-out: Pre-Emergence Activity LOLPE (100=total damage to plant; 0=no damage to plant). The gist of the method:
as §1

For series [9], the system named is Alopecurus myosuroides (ALOMY). Description: Example A glasshouse herbicide test, pre-emergence, ALOMY. It counts as in vivo. Conditions: Alopecurus myosuroides, pre-emergence, 312 h, Rate 250 g/ha, sprayed after cultivation for one day, evaluated after 13 days, read-out: Pre-Emergence Activity ALOMY (100=total damage to plant; 0=no damage to plant). The gist of the method: as §1

The test system of series [10] is Winter Wheat variety 'Hereward'. Description: Example B crop damage test, post-emergence, wheat seed treated with safener cloquintocet mexyl. The note with it: Rate 250 g/ha; post-emergence spray 8 days after sowing; seed treated with cloquintocet mexyl 0.5 g/kg dry seed; evaluated after 13 days. The format is in vivo. The gist of the method: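 Wheat seed pre-treated with cloquintocet mexyl at 0.5 g/kg seed, sown 8 days before post-emergence spraying of compound in acetone/water (50:50) with 0.5% Tween 20. Glasshouse at 24/16° C, 14 h light, 65% humidity. Damage scored visually after 13 days, 0 (none) to 100 (total).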

`Cc1cc(C)c(C2C(=O)CC(Cc3ccccc3)C2=O)c(C)c1` (stereo not shown) [Compound A17]: the melting point was 160 to 165 °C. Besides, the pest or weed control at 250 g/ha in [1] worked out at 80%. The pest or weed control at 250 g/ha in [2] stood at 70%. The pest or weed control at 250 g/ha in the series with Avena fatua (AVEFA) [3] amounted to 30%. In addition, in the series on Lolium perenne (LOLPE) [4], the pest or weed control at 250 g/ha was determined as 80%. The “Winter Wheat (Hereward) damage (100=total damage to plant; 0=no damage to plant)” value in series [5] is reported as 10. Further, the pest or weed control at 250 g/ha in series [6] turned out to be 60%. Further, in the series with Avena fatua (AVEFA) [7], the pest or weed control at 250 g/ha turned out to be 40%. Further, the pest or weed control at 250 g/ha in the series on Lolium perenne (LOLPE) [8] is 90%. Moreover, in series [9], the pest or weed control at 250 g/ha was 50%. Further, the “Winter Wheat (Hereward) + cloquintocet mexyl damage (100=total damage to plant; 0=no damage to plant)” value in [10] came out at 10.

`COc1ccc(CC2CC(=O)C(c3c(C)cc(C)cc3C)C2=O)cc1` (stereo not shown) [Compound A24]: the melting point was 197.3 to 197.6 °C. The pest or weed control at 250 g/ha in series [1] was 80%. Also, the pest or weed control at 250 g/ha in series [2] was found to be 80%. In the series with Avena fatua (AVEFA) [3], the pest or weed control at 250 g/ha was determined as 80%. Further, the pest or weed control at 250 g/ha in the series with Lolium perenne (LOLPE) [4] amounted to 80%. Moreover, in [5], the “Winter Wheat (Hereward) damage (100=total damage to plant; 0=no damage to plant)” value worked out at 40. Besides, the pest or weed control at 250 g/ha in [6] is 30%. For the same molecule, in the series with Avena fatua (AVEFA) [7], the pest or weed control at 250 g/ha was determined as 90%. Also, in the series on Lolium perenne (LOLPE) [8], the pest or weed control at 250 g/ha is 100%. The pest or weed control at 250 g/ha in series [9] worked out at 90%. Moreover, the “Winter Wheat (Hereward) + cloquintocet mexyl damage (100=total damage to plant; 0=no damage to plant)” value in [10] came out at 10.

One may read the melting point as the temperature, or range, at which the solid turns liquid.
